Among the data in ChEMBL document CHEMBL5244248, “A novel long-acting oxyntomodulin analogue eliminates diabetes and obesity in mice” (Eur J Med Chem, 2020) are inhibition and EC50 values, retold here.

The test system of one test is INS1. As to the kind of experiment: Anti-apoptotic activity in rat INS1 cells assessed as reduction in cytokine-induced cell apoptosis at 100 nM treated for 1 hr prior to TNF-alpha and IL-1beta challenge. Type of test: functional.
For test [1], the target named is T1, Glucagon-like peptide 1 receptor (Mus musculus, UniProt O35659).
T1 sequence (O35659 whole entry): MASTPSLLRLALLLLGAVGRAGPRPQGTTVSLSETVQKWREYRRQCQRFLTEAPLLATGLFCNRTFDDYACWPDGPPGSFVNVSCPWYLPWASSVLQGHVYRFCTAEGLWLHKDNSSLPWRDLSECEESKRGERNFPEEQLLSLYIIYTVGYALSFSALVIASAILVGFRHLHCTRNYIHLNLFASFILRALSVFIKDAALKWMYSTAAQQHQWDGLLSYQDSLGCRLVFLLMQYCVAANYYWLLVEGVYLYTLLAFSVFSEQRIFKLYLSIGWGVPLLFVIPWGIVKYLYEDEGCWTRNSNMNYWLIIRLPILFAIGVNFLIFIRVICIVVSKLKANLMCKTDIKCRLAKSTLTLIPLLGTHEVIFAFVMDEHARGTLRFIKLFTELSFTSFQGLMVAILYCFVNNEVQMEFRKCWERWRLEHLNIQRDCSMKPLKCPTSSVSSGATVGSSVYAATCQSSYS
Put plainly: Agonist activity at mouse GLP-1R expressed in CHO cells assessed as increase in cAMP accumulation. In kind it is cell-based. Background: Cyclic AMP is a second messenger, typically raised through Gs and lowered through Gi signalling.

The target of a further test is Glucagon receptor (Mus musculus, UniProt Q61606). As to the kind of experiment: Agonist activity at mouse GCGR expressed in CHO cells assessed as increase in cAMP accumulation. Type of test: cell-based.

Square brackets hold non-standard residues; d marks the D form. Peptide text beside a SMILES is read from it. Aib = CC(C)(N)C(=O)O

Glucagon receptor, sequence (Q61606 whole entry): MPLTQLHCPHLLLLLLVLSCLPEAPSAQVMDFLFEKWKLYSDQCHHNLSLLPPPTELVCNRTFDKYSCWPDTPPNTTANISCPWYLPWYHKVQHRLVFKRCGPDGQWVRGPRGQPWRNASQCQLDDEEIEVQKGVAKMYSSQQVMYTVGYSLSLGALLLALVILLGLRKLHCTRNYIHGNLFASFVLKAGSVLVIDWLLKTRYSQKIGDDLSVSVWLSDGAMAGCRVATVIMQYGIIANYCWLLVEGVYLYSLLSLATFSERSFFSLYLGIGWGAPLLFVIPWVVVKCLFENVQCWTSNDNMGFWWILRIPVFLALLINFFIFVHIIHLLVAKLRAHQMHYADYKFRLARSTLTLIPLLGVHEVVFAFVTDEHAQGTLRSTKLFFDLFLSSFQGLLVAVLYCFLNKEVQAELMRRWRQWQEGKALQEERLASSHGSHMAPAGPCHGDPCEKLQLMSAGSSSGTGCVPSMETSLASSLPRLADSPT

On to `CC[C@H](C)[C@H](NC(=O)[C@H](Cc1ccccc1)NC(=O)[C@H](CCC(=O)O)NC(=O)[C@H](CCCCN)NC(=O)[C@H](C)NC(=O)[C@H](C)NC(=O)[C@H](CCC(N)=O)NC(=O)CNC(=O)[C@H](CCC(=O)O)NC(=O)[C@H](CC(C)C)NC(=O)[C@H](Cc1ccc(O)cc1)NC(=O)[C@H](CO)NC(=O)[C@H](CO)NC(=O)[C@@H](NC(=O)[C@H](CC(=O)O)NC(=O)[C@H](CO)NC(=O)[C@@H](NC(=O)[C@H](Cc1ccccc1)NC(=O)[C@@H](NC(=O)CNC(=O)[C@H](CCC(=O)O)NC(=O)[C@H](C)NC(=O)[C@@H](N)Cc1cnc[nH]1)[C@@H](C)O)[C@@H](C)O)C(C)C)C(=O)N[C@@H](C)C(=O)N[C@@H](Cc1c[nH]c2ccccc12)C(=O)N[C@@H](CC(C)C)C(=O)N[C@H](C(=O)N[C@@H](CCCCN)C(=O)NCC(=O)N[C@@H](CCCNC(=N)N)C(=O)O)C(C)C`, for which, in the test on INS1, the inhibition (in general, the relative decrease from the control value, in per cent) at 0.1 µM was determined as 40.4%. Take `CC[C@H](C)[C@H](NC(=O)[C@H](CC(N)=O)NC(=O)[C@H](CC(N)=O)NC(=O)[C@H](CCCNC(=N)N)NC(=O)[C@H](CC(N)=O)NC(=O)[C@H](CCCNC(=N)N)NC(=O)[C@H](CCCCN)NC(=O)[C@@H](NC(=O)[C@H](CC(N)=O)NC(=O)[C@H](CCSC)NC(=O)[C@H](CC(C)C)NC(=O)[C@H](Cc1c[nH]c2ccccc12)NC(=O)[C@H](CCC(=O)O)NC(=O)[C@@H](NC(=O)[C@H](Cc1ccccc1)NC(=O)[C@H](CCC(=O)O)NC(=O)[C@H](CCCCN)NC(=O)[C@H](C)NC(=O)[C@H](CCCNC(=N)N)NC(=O)[C@H](CCCCN)NC(=O)[C@H](CCC(=O)O)NC(=O)[C@H](CC(=O)O)NC(=O)[C@H](CC(C)C)NC(=O)[C@H](Cc1ccc(O)cc1)NC(=O)[C@H](CCCCN)NC(=O)[C@H](CO)NC(=O)[C@H](Cc1ccc(O)cc1)NC(=O)[C@H](CC(=O)O)NC(=O)[C@H](CO)NC(=O)[C@@H](NC(=O)[C@H](Cc1ccccc1)NC(=O)[C@@H](NC(=O)CNC(=O)[C@H](CCC(N)=O)NC(=O)C(C)(C)NC(=O)[C@@H](N)Cc1c[nH]cn1)[C@@H](C)O)[C@@H](C)O)C(C)C)[C@@H](C)O)C(=O)N[C@@H](C)C(N)=O` (H-H[Aib]QGTFTSDYSKYLDEKRAKEFVEWLMNTKRNRNNIA-NH2): the EC50 (in general, the concentration needed to bring the measured effect to its halfway point) in test [1] was found to be 1.36 nM; at Glucagon receptor, 1.44 nM.
